We go through one compound from patent US8148364B2, “Substituted bicyclic pyrimidone derivatives” (Sanofi-Aventis, priority 2005, dated 2012).

Usually pIC50 stands for −log10 of the IC50, conventionally taken in molar units. Low values mean a large IC50, high ones a small IC50.

pIC50: −log10 of the molar value.

The target in the experiment is GSK3β (Homo sapiens, UniProt P49841). Nature of the experiment: Inhibitory activity against GSK3β (33P-ATP phosphorylation of prephosphorylated GS1 peptide, two protocols). In kind it is biochemical. As to the method: Two different protocols can be used. In a first protocol: 7.5 μM of prephosphorylated GS1 peptide and 10 μM ATP (containing 300,000 cpm of 33P-ATP) were incubated in 25 mM Tris-HCl, pH 7.5, 0.6 mM DTT, 6 mM MgCl2, 0.6 mM EGTA, 0.05 mg/ml BSA buffer for 1 hour at room temperature in the presence of GSK3beta (total reaction volume: 100 microliters). In a second protocol: 4.1 μM of prephosphorylated GS1 peptide and 42 μM ATP (containing 260,000 cpm 33P-ATP) were incubated in 80 mM Mes-NaOH, pH 6.5, 1 mM Mg acetate, 0.5 mM EGTA, 5 mM 2-mercaptoethanol, 0.02% Tween 20, 10% glycerol buffer for 2 hours at room temperature in the presence of GSK3beta. Inhibitors were solubilized in DMSO (final solvent concentration in the reaction medium, 1%). The reaction was stopped with 100 microliters of a solution made of 25 g polyphosphoric acid (85% P2O5), 126 ml 85% H3PO4, H2O to 500 ml and then diluted to 1:100 before use. An aliquot of the reaction mixture was then transferred to Whatman P81 cation exchange filters and rinsed with the solution described above. Incorporated 33P radioactivity was determined by liquid scintillation spectrometry. The phosphorylated GS-1 peptide used in the example was the same one as reported in Woodgett, J. R. (1989) Analytical Biochemistry 180, 237-241 and had the same sequence as reported therein, which reference is incorporated herein by reference in its entirety.
Chain of GSK3β (P49841 whole entry): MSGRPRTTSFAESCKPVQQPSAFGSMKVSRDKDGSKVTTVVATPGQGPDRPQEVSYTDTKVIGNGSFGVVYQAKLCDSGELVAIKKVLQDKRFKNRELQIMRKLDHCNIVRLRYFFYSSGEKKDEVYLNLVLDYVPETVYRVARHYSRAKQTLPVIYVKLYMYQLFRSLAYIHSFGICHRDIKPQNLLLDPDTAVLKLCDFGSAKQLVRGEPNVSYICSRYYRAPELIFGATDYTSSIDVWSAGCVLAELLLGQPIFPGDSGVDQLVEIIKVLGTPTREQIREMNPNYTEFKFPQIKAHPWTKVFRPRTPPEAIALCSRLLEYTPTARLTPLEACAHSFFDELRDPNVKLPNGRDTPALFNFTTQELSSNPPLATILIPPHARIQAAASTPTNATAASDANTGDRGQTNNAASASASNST

Consider `COc1cc(F)ccc1C(=O)NC1CCCn2c1nc(-c1ccncn1)cc2=O` (racemic) [compound No. 33 of table 1, (+/−) 4-Fluoro-2-methoxy-N-(4-oxo-2-pyrimidin-4-yl-6,7,8,9-tetrahydro-4H-pyrido[1,2-a]pyrimidin-9-yl)benzamide], for which the pIC50 was 8.30.
